Activity calls are given as the source filed them. The rule behind the calls is not given here.
Test system: CCRIS mutagenicity, Ames/micronucleus/aberration tests
Experiment: CCRIS mutagenicity studies
[1] = Test System: AMES SALMONELLA TYPHIMURIUM, Strain/Indicator: TA98, Metabolic Activation: NONE, Method: PREINCUBATION
[2] = Test System: AMES SALMONELLA TYPHIMURIUM, Strain/Indicator: TA100, Metabolic Activation: NONE, Method: PREINCUBATION
[3] = Test System: AMES SALMONELLA TYPHIMURIUM, Strain/Indicator: TA1535, Metabolic Activation: NONE, Method: PREINCUBATION
[4] = Test System: AMES SALMONELLA TYPHIMURIUM, Strain/Indicator: TA98, Metabolic Activation: NONE, Method: STANDARD PLATE
[5] = Test System: AMES SALMONELLA TYPHIMURIUM, Strain/Indicator: TA100, Metabolic Activation: NONE, Method: STANDARD PLATE
[6] = Test System: AMES SALMONELLA TYPHIMURIUM, Strain/Indicator: TA98, Metabolic Activation: RAT, LIVER, S-9, AROCLOR 1254, Method: STANDARD PLATE
[7] = Test System: AMES SALMONELLA TYPHIMURIUM, Strain/Indicator: TA100, Metabolic Activation: RAT, LIVER, S-9, AROCLOR 1254, Method: STANDARD PLATE

## OC[C@@H](O)CCl
[1]
  mutagenic call: inactive; negative
Test System: AMES SALMONELLA TYPHIMURIUM, Strain/Indicator: TA98, Metabolic Activation: RAT, LIVER, S-9, KANECHLOR 500, Method: PREINCUBATION
  mutagenic call: inactive; negative
[2]
  mutagenic call: active; positive
Test System: AMES SALMONELLA TYPHIMURIUM, Strain/Indicator: TA100, Metabolic Activation: RAT, LIVER, S-9, KANECHLOR 500, Method: PREINCUBATION
  mutagenic call: inactive; negative
Test System: AMES SALMONELLA TYPHIMURIUM, Strain/Indicator: TA100, Metabolic Activation: RAT, LIVER, S-9, PCB, Method: PREINCUBATION
  mutagenic call: active; positive

## CC(C)(C)c1ccc(O)c(O)c1
Test System: AMES SALMONELLA TYPHIMURIUM, Strain/Indicator: TA97, Metabolic Activation: HAMSTER LIVER S-9, AROCLOR 1254 (10% OR 30%), Method: PREINCUBATION
  mutagenic call: inactive; negative
Test System: AMES SALMONELLA TYPHIMURIUM, Strain/Indicator: TA97, Metabolic Activation: NONE, Method: PREINCUBATION
  mutagenic call: inactive; negative
Test System: AMES SALMONELLA TYPHIMURIUM, Strain/Indicator: TA97, Metabolic Activation: RAT LIVER S-9, AROCLOR 1254 (10% OR 30%), Method: PREINCUBATION
  mutagenic call: inactive; negative
Test System: AMES SALMONELLA TYPHIMURIUM, Strain/Indicator: TA98, Metabolic Activation: HAMSTER LIVER S-9, AROCLOR 1254 (10% OR 30%), Method: PREINCUBATION
  mutagenic call: inactive; negative
[1]
  mutagenic call: inactive; negative
Test System: AMES SALMONELLA TYPHIMURIUM, Strain/Indicator: TA98, Metabolic Activation: RAT LIVER S-9, AROCLOR 1254 (10% OR 30%), Method: PREINCUBATION
  mutagenic call: inactive; negative
Test System: AMES SALMONELLA TYPHIMURIUM, Strain/Indicator: TA100, Metabolic Activation: HAMSTER LIVER S-9, AROCLOR 1254 (10% OR 30%), Method: PREINCUBATION
  mutagenic call: inactive; negative
[2]
  mutagenic call: inactive; negative
Test System: AMES SALMONELLA TYPHIMURIUM, Strain/Indicator: TA100, Metabolic Activation: RAT LIVER S-9, AROCLOR 1254 (10% OR 30%), Method: PREINCUBATION
  mutagenic call: inactive; negative
Test System: AMES SALMONELLA TYPHIMURIUM, Strain/Indicator: TA102, Metabolic Activation: HAMSTER LIVER S-9, AROCLOR 1254 (10% OR 30%), Method: PREINCUBATION
  mutagenic call: inactive; negative
Test System: AMES SALMONELLA TYPHIMURIUM, Strain/Indicator: TA102, Metabolic Activation: NONE, Method: PREINCUBATION
  mutagenic call: inactive; negative
Test System: AMES SALMONELLA TYPHIMURIUM, Strain/Indicator: TA102, Metabolic Activation: RAT LIVER S-9, AROCLOR 1254 (10% OR 30%), Method: PREINCUBATION
  mutagenic call: inactive; negative
Test System: AMES SALMONELLA TYPHIMURIUM, Strain/Indicator: TA104, Metabolic Activation: HAMSTER LIVER S-9, AROCLOR 1254 (10% OR 30%), Method: PREINCUBATION
  mutagenic call: inactive; negative
Test System: AMES SALMONELLA TYPHIMURIUM, Strain/Indicator: TA104, Metabolic Activation: NONE, Method: PREINCUBATION
  mutagenic call: inactive; negative
Test System: AMES SALMONELLA TYPHIMURIUM, Strain/Indicator: TA104, Metabolic Activation: RAT LIVER S-9, AROCLOR 1254 (10% OR 30%), Method: PREINCUBATION
  mutagenic call: inactive; negative
Test System: AMES SALMONELLA TYPHIMURIUM, Strain/Indicator: TA1535, Metabolic Activation: HAMSTER LIVER S-9, AROCLOR 1254 (10% OR 30%), Method: PREINCUBATION
  mutagenic call: inactive; negative
[3]
  mutagenic call: inactive; negative
Test System: AMES SALMONELLA TYPHIMURIUM, Strain/Indicator: TA1535, Metabolic Activation: RAT LIVER S-9, AROCLOR 1254 (10% OR 30%), Method: PREINCUBATION
  mutagenic call: inactive; negative

## c1ccc2sc(SNC3CCCCC3)nc2c1
[4]
  mutagenic call: inactive; negative
Test System: AMES SALMONELLA TYPHIMURIUM, Strain/Indicator: TA98, Metabolic Activation: S-9, Method: STANDARD PLATE
  mutagenic call: inactive; negative
[5]
  mutagenic call: inactive; negative
Test System: AMES SALMONELLA TYPHIMURIUM, Strain/Indicator: TA100, Metabolic Activation: S-9, Method: STANDARD PLATE
  mutagenic call: inactive; negative

## C=Cc1ccncc1
[4]
  mutagenic call: inactive; negative
[6]
  mutagenic call: inactive; negative
[5]
  mutagenic call: inactive; negative
[7]
  mutagenic call: inactive; negative
Test System: AMES SALMONELLA TYPHIMURIUM, Strain/Indicator: TA1535, Metabolic Activation: NONE, Method: STANDARD PLATE
  mutagenic call: inactive; negative
Test System: AMES SALMONELLA TYPHIMURIUM, Strain/Indicator: TA1535, Metabolic Activation: RAT, LIVER, S-9, AROCLOR 1254, Method: STANDARD PLATE
  mutagenic call: inactive; negative
Test System: AMES SALMONELLA TYPHIMURIUM, Strain/Indicator: TA1538, Metabolic Activation: NONE, Method: STANDARD PLATE
  mutagenic call: inactive; negative
Test System: AMES SALMONELLA TYPHIMURIUM, Strain/Indicator: TA1538, Metabolic Activation: RAT, LIVER, S-9, AROCLOR 1254, Method: STANDARD PLATE
  mutagenic call: inactive; negative
Test System: UDS RAT HEPATOCYTES, Strain/Indicator: THY INCORP, Metabolic Activation: NONE
  mutagenic call: inactive; negative

## Nc1cc(Cl)ccc1[N+](=O)[O-]
End Point: IN VITRO CHROMOSOMAL ABERRATIONS, Test System: CHL CELLS, Metabolic Activation: RAT, LIVER, S-9, SODIUM PHENOBARBITAL AND 5,6-BENZOFLAVONE
  mutagenic call: active; positive (structural changes); authors report equivocal results for ploidy chang
[1]
  mutagenic call: active; positive
Test System: AMES SALMONELLA TYPHIMURIUM, Strain/Indicator: TA98, Metabolic Activation: RAT LIVER S-9, PHENOBARBITAL AND BETA-NAPHTHOFLAVONE, Method: PREINCUBATION
  mutagenic call: active; positive
[2]
  mutagenic call: inactive; negative
Test System: AMES SALMONELLA TYPHIMURIUM, Strain/Indicator: TA100, Metabolic Activation: RAT LIVER S-9, PHENOBARBITAL AND BETA-NAPHTHOFLAVONE, Method: PREINCUBATION
  mutagenic call: inactive; negative
[3]
  mutagenic call: inactive; negative
Test System: AMES SALMONELLA TYPHIMURIUM, Strain/Indicator: TA1535, Metabolic Activation: RAT LIVER S-9, PHENOBARBITAL AND BETA-NAPHTHOFLAVONE, Method: PREINCUBATION
  mutagenic call: inactive; negative
Test System: AMES SALMONELLA TYPHIMURIUM, Strain/Indicator: TA1537, Metabolic Activation: NONE, Method: PREINCUBATION
  mutagenic call: inactive; negative
Test System: AMES SALMONELLA TYPHIMURIUM, Strain/Indicator: TA1537, Metabolic Activation: RAT LIVER S-9, PHENOBARBITAL AND BETA-NAPHTHOFLAVONE, Method: PREINCUBATION
  mutagenic call: inactive; negative
Test System: E.COLI, Strain/Indicator: WP2UVRA, Metabolic Activation: NONE, Method: PREINCUBATION
  mutagenic call: inactive; negative
Test System: E.COLI, Strain/Indicator: WP2UVRA, Metabolic Activation: RAT LIVER S-9, PHENOBARBITAL AND BETA-NAPHTHOFLAVONE, Method: PREINCUBATION
  mutagenic call: inactive; negative

## CC1(C)C[C@H]2C=C(C=O)[C@@]3(C=O)C[C@@]3(C)[C@H]2C1
Test System: CHINESE HAMSTER V-79, Strain/Indicator: V-79/6-THIOGUANINE (HGPRT), Metabolic Activation: NONE
  mutagenic call: inactive; negative

## C=C(C)C1C=C2C(COC(=O)CCCCCCCCCCCCCCCCC)=CC=C2C(C)=CC1 (stereo not given)
[4]
  mutagenic call: inactive; negative
[6]
  mutagenic call: inactive; negative
[5]
  mutagenic call: active; positive
[7]
  mutagenic call: active; positive

## Nc1c(N=Nc2ccc(S(=O)(=O)CCOS(=O)(=O)O)cc2)c(S(=O)(=O)O)cc2cc(S(=O)(=O)O)c(N=Nc3ccc(S(=O)(=O)CCOS(=O)(=O)O)cc3)c(O)c12
Test System: Ames Salmonella typhimurium, Strain/Indicator: TA98, Metabolic Activation: None, Method: Preincubation
  mutagenic call: inactive; negative
Test System: Ames Salmonella typhimurium, Strain/Indicator: TA98, Metabolic Activation: Rat, Liver, S-9, Aroclor 1254, Method: Preincubation
  mutagenic call: inactive; negative
Test System: Ames Salmonella typhimurium, Strain/Indicator: TA100, Metabolic Activation: None, Method: Preincubation
  mutagenic call: inactive; negative
Test System: Ames Salmonella typhimurium, Strain/Indicator: TA100, Metabolic Activation: Rat, Liver, S-9, Aroclor 1254, Method: Preincubation
  mutagenic call: inactive; negative
Test System: Ames Salmonella typhimurium, Strain/Indicator: TA102, Metabolic Activation: None, Method: Preincubation
  mutagenic call: inactive; negative
Test System: Ames Salmonella typhimurium, Strain/Indicator: TA102, Metabolic Activation: Rat, Liver, S-9, Aroclor 1254, Method: Preincubation
  mutagenic call: inactive; negative
Test System: Ames Salmonella typhimurium, Strain/Indicator: TA1535, Metabolic Activation: None, Method: Preincubation
  mutagenic call: inactive; negative
Test System: Ames Salmonella typhimurium, Strain/Indicator: TA1535, Metabolic Activation: Rat, Liver, S-9, Aroclor 1254, Method: Preincubation
  mutagenic call: inactive; negative

Source: PubChem BioAssay AID1259407 (Chemical Carcinogenesis Research Information System (CCRIS), 2018)
